According to patent US20230077155A1, “TETRAHYDROISOQUINOLINE COMPOUND AS POTASSIUM CHANNEL MODULATOR AND PREPARATION AND APPLICATION THEREOF” (Shanghai Zhimeng Biopharma, Inc., priority 2020, published 2023):
Values belong to the molecule of their own block, whether it stands above or below them.

How the values were obtained:
[1] = target: T1, KCNQ2 potassium channel (CHO-KCNQ2 cells) (Homo sapiens, UniProt O43526); experiment: Potassium ion channel opener activity test (FDSS/μCELL detection, FluxOR thallium flux); type: cell-based; conditions: for Maximum agonist rate (%): highest test concentration 100 μM
T1 construct: expressed in transfected cells; host or cells: CHO cells stably expressing KCNQ2, kept under G418 selection
T1 sequence (O43526 whole entry): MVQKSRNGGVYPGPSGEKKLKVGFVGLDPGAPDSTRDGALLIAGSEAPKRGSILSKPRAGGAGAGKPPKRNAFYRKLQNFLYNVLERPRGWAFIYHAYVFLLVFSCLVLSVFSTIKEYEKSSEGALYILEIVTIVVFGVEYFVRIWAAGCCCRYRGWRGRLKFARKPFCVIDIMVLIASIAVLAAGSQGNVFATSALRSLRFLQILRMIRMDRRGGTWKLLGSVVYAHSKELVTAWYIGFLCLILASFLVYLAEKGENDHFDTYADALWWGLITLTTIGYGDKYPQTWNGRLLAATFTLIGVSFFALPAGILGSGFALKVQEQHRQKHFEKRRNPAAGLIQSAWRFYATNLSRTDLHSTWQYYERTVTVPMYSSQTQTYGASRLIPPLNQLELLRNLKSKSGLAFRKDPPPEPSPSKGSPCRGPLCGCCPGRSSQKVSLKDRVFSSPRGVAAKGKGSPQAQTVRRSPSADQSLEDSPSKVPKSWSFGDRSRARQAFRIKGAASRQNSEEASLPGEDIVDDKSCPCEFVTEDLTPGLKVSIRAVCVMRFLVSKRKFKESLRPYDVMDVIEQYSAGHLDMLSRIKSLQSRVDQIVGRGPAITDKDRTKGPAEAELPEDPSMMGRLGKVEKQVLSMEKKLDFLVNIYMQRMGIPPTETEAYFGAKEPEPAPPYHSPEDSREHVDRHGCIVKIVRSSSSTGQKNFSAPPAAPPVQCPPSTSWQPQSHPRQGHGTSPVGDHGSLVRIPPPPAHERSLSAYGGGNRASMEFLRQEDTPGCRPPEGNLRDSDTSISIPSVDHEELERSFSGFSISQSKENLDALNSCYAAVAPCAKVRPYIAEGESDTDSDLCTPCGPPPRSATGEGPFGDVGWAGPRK
Procedure: Potassium Ion Channel Opener Activity Test (FDSS/μCELL Detection)
1.1 Experimental procedure
Cell preparation: CHO-KCNQ2 cells were cultured in a 175 cm^2 culture flask, and when the cell density grew to 60-80%, the culture medium was removed, washed with 7 mL PBS (Phosphate Buffered Saline) once, then 3 mL 0.25% Trypsin was added to digest. After the digestion was completed, 7 mL culture medium (90% DMEM/F12+10% FBS±500 μg/mL G418) was added to neutralize, centrifugated for 3 minutes at 800 rpm. The supernatant was aspirated, then 5 mL culture medium was added to resuspend, and then the cells were counted.
Cell plating: according to the results of cell counting, the density was adjusted to 3×10^4 cells/well. After standing at room temperature for 30 minutes, the plate was placed in a 37° C. CO2 incubator and incubated overnight for 16-18 hours. The cell density reached about 80%.
Fluorescent dye incubation: the cell culture medium was discarded, 80 μL/well loading buffer was added, and incubated in the dark at room temperature for 60 minutes. Compound incubation: the loading buffer was discarded, 80 μL/well prepared compound solution was added, and incubated in the dark at room temperature for 20 minutes.
Fluorescence data collection: FDSS/μCELL instrument was used for real-time fluorescence signal recording with excitation wavelength at 480 nm and emission wavelength at 540 nm, recorded 1 time per second, and 20 μL/well stimulation buffer was started to add after recording for 10 seconds for baseline, and then continued to record until the end of 180 seconds.
The above buffer come from a commercially available kit named FluxOR potassium ion channel assay.
20 mM DMSO compound mother liquor was prepared, 10 μL of 20 mM compound mother liquor was took into 20 μL DMSO solution, serially diluted 3 times to 8 intermediate concentrations; then the intermediate concentrations of the compound was took out and added to the test buffer, diluted for 200 times to get the final concentration to be tested, 80 μL was took out and added to the test plate.
The highest test concentration was 100 μM, followed by […], 33.33, 11.11, 3.70, 1.23, 0.41, 0.137, 0.045 μM, total 8 concentrations. Each concentration set 3 duplicate wells.
This concentration of DMSO has no effect on the KCNQ2 potassium channel.
Experimental data was analyzed by Excel 2007 and GraphPad Prism 5.0 software, and the ratio of 180 seconds was calculated to calculate the agonism effect. The agonism effect of the compound was calculated by the following formula: […]
Reagent: FluxORTM Detection Kit (Invitrogen, Cat #F0017)
The experimental data in the report must meet the following criteria: Z′ Factor>0.5
2. Results: See Table 1, wherein the smaller the EC50 is, the higher the activity of the corresponding compound is.

[2] = Pharmacokinetics of mice, single intravenous and oral administration, plasma; type: in vivo; conditions: male ICR mice; for F: gavage 10 mg/kg vs intravenous; for AUC(0-inf) / AUC(0-t) / Cmax / Tmax / half-life: mouse, plasma
Procedure: Study on Pharmacokinetics of Mice
1) Research purposes: In order to obtain the pharmacokinetic characteristics and blood-brain barrier of the tested compound in male ICR mice
Six healthy male ICR mice (body weight range 18-22 g) were taken and divided into 2 groups and 3 mice/group. After fasting overnight (only oral administration group), […], blood was collected by jugular vein puncture at time points 0.083 (IV only), 0.25, 0.5, 1, 2, 4, 6 (PO only), 8 and 24 hours, and at least 0.3 mL of whole blood was collected to EDTA-K2 anticoagulant tube. Plasma was centrifuged (6000 rpm, 8 minutes, 4° C.) within half an hour and frozen at −20° C. for later use.
(§1) Experimental results: According to the blood drug concentration data obtained, the non-compartmental model of WinNonlin® 7.0 software (Pharsight, USA) was used to calculate the pharmacokinetic parameters after administration.

[3] = Pharmacokinetics of rats, single intravenous and oral administration, plasma; type: in vivo; conditions: male SD rats; for F: gavage 5 mg/kg vs intravenous 0.3 mg/kg; for AUC(0-inf) / AUC(0-t) / Cmax / Tmax / half-life: rat, plasma
Procedure: Study on Pharmacokinetics of Rats
1) Research purpose: To obtain the pharmacokinetic characteristics of the compounds to be tested in male SD rats.
Pharmacokinetic study: 6 healthy male SD rats (SPF grade) were divided into 2 groups and 3 rats/group. After fasting overnight (only oral administration group), compound A was administrated 0.3 mg/kg intravenously and 5 mg/kg orally, blood was collected by jugular vein puncture at time points 0.083 (IV only), 0.25, 0.5, 1, 2, 4, 6 (PO only), 8 and 24 hours, and at least 0.3 mL of whole blood was collected to EDTA-K2 anticoagulant tube. Plasma was centrifuged (6000 rmp, 8 minutes, 4° C.) within half an hour and frozen at −20° C. for later use.
as §1

[4] = Brain-blood ratio study in mice after single oral administration; type: in vivo; conditions: mouse, brain and plasma, male ICR mice, single oral 10 mg/kg, read-out: Cerebral blood ratio; for Kp at 2 h: time point 2 h; for Kp at 4 h: time point 4 h
Procedure: Brain-blood ratio study: 6 healthy male ICR mice (body weight range 18-22 g) were taken and divided into 2 groups and 3 mice/group. After fasting overnight, the compound to be tested (10 mg/kg) was administrated orally respectively. Blood was taken through cardiac puncture at time points 2 and 4 hours, at least 0.5 mL of whole blood was collected to EDTA-K2 anticoagulant tube. Plasma was centrifuged (6000 rpm, 8 minutes, 4° C.) within half an hour and frozen at −20° C. for later use. At the same time, the brain tissue was collected, rinsed with normal saline, then sucked to dryness with absorbent paper, weighed, and frozen at −20° C. for later use.
The cerebral blood ratio is very important to nerve drugs, and it can be seen from Table 3 that the compounds of the present invention have excellent cerebral blood ratio, which will bring better drug efficacy and excellent safety. By comparing the cerebral blood ratios of compound A, compound 1, compound B and compound J, it can be seen that after the tert-butyl of compound A or compound B has been changed into […]

[5] = intravenous 1 mg/kg (footnote *)

SMILES: Cc1cc2c(c(C)c1NC(=O)CC1(C)CC1)CCCN(c1ccc(F)cc1)C2 [Compound A2]
- EC50 [1]: 130 nM
- Maximum agonist rate (%) [1]: 44.53%

SMILES: Cc1cc2c(c(C)c1NC(=O)CC(C)(C)C)CCN(c1ccc(F)cc1)C2 [Compound A]
- F [2]: 33.79%
- AUC(0-inf) ([2]; po, gavage 10 mg/kg): 793 ng·h/mL
- AUC(0-t) ([2]; po, gavage 10 mg/kg): 792 ng·h/mL
- Cmax ([2]; po, gavage 10 mg/kg): 142 ng/mL
- Tmax ([2]; po, gavage 10 mg/kg): 40.2 min
- half-life ([2]; po, gavage 10 mg/kg): 157 min
- AUC(0-inf) ([2]; intravenous 0.5 mg/kg): 118 ng·h/mL
- AUC(0-t) ([2]; intravenous 0.5 mg/kg): 117 ng·h/mL
- Cmax ([2]; intravenous 0.5 mg/kg): 270 ng/mL
- Tmax ([2]; intravenous 0.5 mg/kg): 4.8 min
- half-life ([2]; intravenous 0.5 mg/kg): 59.4 min
- EC50 [1]: 440 nM
- Maximum agonist rate (%) [1]: 37.97%
- F [3]: 38.93%
- AUC(0-inf) ([3]; po, gavage 5 mg/kg): 1280 ng·h/mL
- AUC(0-t) ([3]; po, gavage 5 mg/kg): 909 ng·h/mL
- Cmax ([3]; po, gavage 5 mg/kg): 154 ng/mL
- Tmax ([3]; po, gavage 5 mg/kg): 90 min
- half-life ([3]; po, gavage 5 mg/kg): 184 min
- AUC(0-inf) ([3]; intravenous 0.3 mg/kg): 144 ng·h/mL
- AUC(0-t) ([3]; intravenous 0.3 mg/kg): 140 ng·h/mL
- Cmax ([3]; intravenous 0.3 mg/kg): 332 ng/mL
- Tmax ([3]; intravenous 0.3 mg/kg): 4.8 min
- half-life ([3]; intravenous 0.3 mg/kg): 59.4 min
- Kp at 2 h [4]: 2.3
- Kp at 4 h [4]: 2.8

SMILES: Cc1cc2c(c(C)c1NC(=O)CC(C)(C)C)CCN(c1ccc(F)cc1F)C2 [Compound B]
- F [2]: 88.56%
- AUC(0-inf) ([2]; po, gavage 10 mg/kg): 1430 ng·h/mL
- AUC(0-t) ([2]; po, gavage 10 mg/kg): 1400 ng·h/mL
- Cmax ([2]; po, gavage 10 mg/kg): 776 ng/mL
- Tmax ([2]; po, gavage 10 mg/kg): 15 min
- half-life ([2]; po, gavage 10 mg/kg): 158 min
- AUC(0-inf) [2, 5]: 161 ng·h/mL
- AUC(0-t) [2, 5]: 158 ng·h/mL
- Cmax [2, 5]: 405 ng/mL
- Tmax [2, 5]: 4.8 min
- half-life [2, 5]: 56.4 min
- EC50 [1]: 160 nM
- Maximum agonist rate (%) [1]: 37.5%
- F [3]: 43.63%
- AUC(0-inf) ([3]; po, gavage 5 mg/kg): 1080 ng·h/mL
- AUC(0-t) ([3]; po, gavage 5 mg/kg): 1070 ng·h/mL
- Cmax ([3]; po, gavage 5 mg/kg): 128 ng/mL
- Tmax ([3]; po, gavage 5 mg/kg): 240 min
- half-life ([3]; po, gavage 5 mg/kg): 208 min
- AUC(0-inf) ([3]; intravenous 0.3 mg/kg): 149 ng·h/mL
- AUC(0-t) ([3]; intravenous 0.3 mg/kg): 147 ng·h/mL
- Cmax ([3]; intravenous 0.3 mg/kg): 352 ng/mL
- Tmax ([3]; intravenous 0.3 mg/kg): 4.8 min
- half-life ([3]; intravenous 0.3 mg/kg): 120 min
- Kp at 2 h [4]: 0.99
- Kp at 4 h [4]: 0.72

SMILES: C#Cc1ccc(N2CCc3c(cc(C)c(NC(=O)CC(C)(C)C)c3C)C2)cc1 [Compound D]
- EC50 [1]: 450 nM
- Maximum agonist rate (%) [1]: 29.51%

Continued, values first:

- EC50 [1]: 730 nM
- Maximum agonist rate (%) [1]: 35.84%
SMILES: Cc1cc2c(c(C)c1NC(=O)CC1(C)CC1)CCN(c1ccccc1F)C2 [Compound A1]

- EC50 [1]: 210 nM
- Maximum agonist rate (%) [1]: 36.16%
SMILES: [2H]C1([2H])c2cc(C)c(NC(=O)CC3(C)CC3)c(C)c2CCN1c1ccc(C(F)(F)F)cc1 [Compound A3]

- EC50 [1]: 270 nM
- Maximum agonist rate (%) [1]: 48.11%
SMILES: Cc1cc2c(c(C)c1NC(=O)CC1(C)CC1)CCN(c1cccc(C(F)(F)F)c1)C2 [Compound A4]

- EC50 [1]: 49 nM
- Maximum agonist rate (%) [1]: 34.41%
SMILES: Cc1cc2c(c(C)c1NC(=O)CC1CC(F)(F)C1)CCN(c1ccc(F)cc1)C2 [Compound A5]

- EC50 [1]: 290 nM
- Maximum agonist rate (%) [1]: 17.08%
SMILES: Cc1cc2c(c(C)c1NC(=O)CC1(C(F)(F)F)CC1)CCN(c1ccc(F)cc1)C2 [Compound A6]

- EC50 [1]: 400 nM
- Maximum agonist rate (%) [1]: 35.92%
SMILES: Cc1cc2c(c(C)c1NC(=O)CCC1CC1)CCN(c1ccc(F)cc1)C2 [Compound A7]
